The test system of the experiment is E. multilocularis metacestodes. Briefly: PGI assay: phosphoglucose isomerase release from damaged metacestodes. The note with it: 10 μM, 5 days, single wells, relative to DB1127 (10 μM). The format is cell-based, Echinococcus multilocularis. Here is the method: The preparation of E. multilocularis metacestode material (strain H95) from intraperitoneally (i.p.) infected BALB/c mice was performed as described earlier. Metacestode vesicles were used for in vitro drug screening when they reached 2 to 4 mm in diameter.
For screening of the Malaria Box against E. multilocularis metacestodes, the PGI screening assay was applied that measures the release of the enzyme phosphoglucose isomerase (PGI) upon physical impairment of metacestodes. The screening setup was done in 24 well plates as described by Stadelmann et al. For initial screening, each drug was applied at 10 μM to metacestodes in single wells. As a positive control-drug, the dicationic diguanidino compound DB1127 (10 μM) was used and 0.1% DMSO was added as negative control. Metacestodes were cultured in the presence of the compounds for 5 days, after which PGI release was quantified exactly as stated in Stadelmann et al. […] Averages, standard deviations and EC50 values were calculated in Microsoft Excel 2010.
Turning to `Oc1ccc(Cl)cc1CNc1nc2ccccc2[nH]1` [MMV665850], the “PGI (% of DB1127 at 10 uM)” value is -85.60%. In the case of `O=C(O)C(=O)O.Oc1ccccc1CN1CCN(C(c2ccccc2)c2ccccc2)CC1` [MMV011795], the “PGI (% of DB1127 at 10 uM)” value is on record as -19.79%. Turning to `CCOc1cc(Br)c(C(C)NC(=O)c2cccc(OC)c2)cc1OCC` (stereo not shown) [MMV665796], the “PGI (% of DB1127 at 10 uM)” value is reported as -1.06%. Turning to `COc1ccc(-c2nc3cc(Cc4ccc5[nH]c(-c6ccc(OC)cc6)nc5c4)ccc3[nH]2)cc1` [MMV007384], the “PGI (% of DB1127 at 10 uM)” value was determined as 61.95%.

In the case of `COc1nc(Nc2ccc(C(C)C)cc2)nc(OC)n1` [MMV007808], the “PGI (% of DB1127 at 10 uM)” value is reported as -19.50%. Take `Cl.Cn1c(=O)n(C)c2cc(CNCCNc3ccnc4cc(Cl)ccc34)ccc21` [MMV665875]: the “PGI (% of DB1127 at 10 uM)” value came to 7.55%. `COc1ccc(-c2cn3c(C(=O)Nc4ccccc4Cl)c(-c4ccccc4)c4c3n2CCCC4)cc1` [MMV020403]: the “PGI (% of DB1127 at 10 uM)” value is reported as 8.35%. With `CC1CCN(Cc2ccc(NC(=O)c3cc4ccc5cccnc5c4[nH]3)cc2)CC1` [MMV020549], the “PGI (% of DB1127 at 10 uM)” value was -59.67%.

Regarding `CCCCc1c(C)nc2c(OC)cccc2c1O` [MMV006820], the “PGI (% of DB1127 at 10 uM)” value is on record as 1.39%. Take `CCN(CC)CCCNc1nc(-c2ccc(Cl)cc2)nc2ccccc12` [MMV665961]: the “PGI (% of DB1127 at 10 uM)” value was -34.32%. As for `O=C(NCC1Cc2cccc(-c3ccncc3)c2O1)c1csc2c1CCCC2` (stereo not shown) [MMV665954], the “PGI (% of DB1127 at 10 uM)” value was -10.62%. Take `Cc1cc(C)c2c(c1)OCN(Cc1ccccc1Cl)C2` [MMV006558]: the “PGI (% of DB1127 at 10 uM)” value is on record as -21.27%.

Take `CCOc1cccc2sc(N(Cc3cccnc3)C(=O)C3CCCCC3)nc12` [MMV001230]: the “PGI (% of DB1127 at 10 uM)” value is recorded as -26.73%. Consider `O=C(Nc1ccc(N2CCCCC2)c(Cl)c1)c1ccc(Br)o1` [MMV019700], for which the “PGI (% of DB1127 at 10 uM)” value is listed as -40.52%. Consider `c1ccc(Cn2c(N=Nc3c(Nc4ccccc4)ccc4ccccc34)nc3ccccc32)cc1` [MMV666023], for which the “PGI (% of DB1127 at 10 uM)” value is on record as -50.58%. In the case of `Cc1cccc(Nc2nc(N)c3ccccc3n2)c1.Cl` [MMV019110], the “PGI (% of DB1127 at 10 uM)” value was -9.63%. For the compound `CCOc1ccc(-c2nonc2NC(=O)c2cccc(C)c2)cc1OCC` [MMV665805], the “PGI (% of DB1127 at 10 uM)” value is -25.24%. Regarding `COc1ccc(-c2nonc2NC(=O)c2cccc(C)c2)cc1OC` [MMV665890], the “PGI (% of DB1127 at 10 uM)” value was -8.07%. With `CCOc1ccc2c(c1)CN(Cc1ccc(Cl)cc1)CO2` [MMV000443], the “PGI (% of DB1127 at 10 uM)” value was -40.44%. As for `O=C(NC(c1ccccc1)c1ccc2cccnc2c1O)c1ccccc1` (stereo not shown) [MMV666080], the “PGI (% of DB1127 at 10 uM)” value is -67.16%.

Consider `CCCc1c(C)nc2ccc(Br)cc2c1O` [MMV666095], for which the “PGI (% of DB1127 at 10 uM)” value is given as -30.45%.

In the case of `CCCc1cc(O)c2c3c(c(=O)oc2c1)CN(C)CC3` [MMV665841], the “PGI (% of DB1127 at 10 uM)” value is listed as -34.14%. In the case of `CCN(Cc1ccccc1)C1CCN(Cc2cc(Br)ccc2O)CC1.O=C(O)C(=O)O` [MMV019127], the “PGI (% of DB1127 at 10 uM)” value is on record as -5.90%. As for `CCN1CCN(c2cc(C)c3cc(NC(=O)c4ccc(OC)c(OC)c4)ccc3n2)CC1` [MMV019074], the “PGI (% of DB1127 at 10 uM)” value was -7.35%. With `Cc1cc(C)c2nc(N3CCC(C(=O)NCCCN4CCC(N5CCCCC5)CC4)CC3)sc2c1` [MMV019780] the figure was 36.03%; with `Clc1ccc2c(N3CCCC3)ccnc2c1` [MMV007363], -15.91%; with `CCn1c(CN2CCN(Cc3ccccc3)CC2)nc2cc(NC(=O)c3cccs3)ccc21` [MMV020439], -13.64%. To `O=C(Nc1ccccc1O)c1ccc(-c2ccc(Cl)cc2Cl)o1` [MMV665948] belongs -40.46%; to `O=C(Nc1ccc(CN2CCOCC2)cc1)c1ccc(-c2ccc(Br)cc2)o1` [MMV665901], -20.18%; to `O=C(NC1CCCC1)c1ccc(N2CCC(NCc3cccc(C(F)(F)F)c3)CC2)cc1` [MMV666070], -8.11%. On to `O=C(Nc1ccc(-c2nc3ccccc3[nH]2)cc1)c1ccc(Cl)c(Cl)c1` [MMV665840], for which the “PGI (% of DB1127 at 10 uM)” value is -1.75%. For the compound `O=C(Nc1ccc(F)c(Cl)c1)Nc1ccc(Cl)c(Cl)c1` [MMV665953], the “PGI (% of DB1127 at 10 uM)” value turned out to be 213.83%.

As to `CCOc1ccc(CN2CCN(CC(O)COc3ccc(OCC(O)CN4CCN(Cc5ccc(OCC)cc5)CC4)cc3)CC2)cc1` (stereo not shown) [MMV007092], the “PGI (% of DB1127 at 10 uM)” value is on record as -3.58%. With `Cl.N=c1n(CCN2CCCCC2)c2ccccc2n1CC(O)c1cccc(Br)c1` (stereo not shown) [MMV665902], the “PGI (% of DB1127 at 10 uM)” value is listed as -8.42%. Consider `CCCCNCC(O)(c1ccc(Cl)cc1)c1ccc(Cl)cc1` [MMV665929], for which the “PGI (% of DB1127 at 10 uM)” value is -0.59%. For `CN1CCN(c2c3c(c(C#N)c4nc5ccccc5n24)CCC3)CC1` [MMV008127], the “PGI (% of DB1127 at 10 uM)” value was -35.30%. `CCOc1ccc2nc(C)cc(Nc3ccc(Br)cc3)c2c1` [MMV006522]: the “PGI (% of DB1127 at 10 uM)” value turned out to be 30.79%. Regarding `CCOc1cc(Cl)c(C(C)NC(=O)c2ccccc2)cc1OCC` (stereo not shown) [MMV665800], the “PGI (% of DB1127 at 10 uM)” value is -123.29%. As for `CN(C)c1ccc(N=Cc2ccc(N3CCOCC3)cc2)cc1` [MMV073843], the “PGI (% of DB1127 at 10 uM)” value is given as -14.14%. With `COc1cccc(Nc2nc(NCCO)c3ccccc3n2)c1.Cl` [MMV011944] the figure was 15.53%. As for `Cc1cc(NC(=O)c2cccc(C(F)(F)F)c2)n(-c2nc(-c3ccc4c(c3)OCO4)cs2)n1` [MMV396681], the “PGI (% of DB1127 at 10 uM)” value is on record as -33.55%.

Consider `O=C(CSc1ccc2nnc(-c3cccc(F)c3)n2n1)Nc1ccc2c(c1)OCO2` [MMV665918], for which the “PGI (% of DB1127 at 10 uM)” value was -24.34%. With `COc1ccc(C(=O)Nc2ccc3nc(N4CCCCC4)cc(C)c3c2)cc1OC` [MMV019758] the figure was -36.67%. To `O=C(Nc1ccc(C23CC4CC(CC(c5ccccc5)(C4)C2)C3)cc1)c1cccs1` [MMV007574] belongs -11.28%; to `CCOc1ccccc1NC(=O)CN1CCN(C(=O)c2ccco2)CC1` [MMV007791], -28.95%. `CCN(CC)CCNc1ccnc2cc(Cl)ccc12` [MMV006087]: the “PGI (% of DB1127 at 10 uM)” value is given as -37.06%.

On to `COc1ccc2nc(C)cc(Nc3ccc(Cl)cc3)c2c1` [MMV007875], for which the “PGI (% of DB1127 at 10 uM)” value is on record as -32.27%. To `CCc1ccc(CNCC(O)c2ccccc2)cc1.Cl` (stereo not shown) [MMV665812] belongs -2.45%. With `CCOC(=O)C1=CN(C)C=C(C(=O)OCC)C1c1cc(Br)c(OCC)c(OC)c1` [MMV006656], the “PGI (% of DB1127 at 10 uM)” value turned out to be 16.40%. Take `CCOc1ccc(-c2nc(NC(=O)c3cccc(S(C)(=O)=O)c3)sc2C)cc1` [MMV665913]: the “PGI (% of DB1127 at 10 uM)” value is -25.30%. Turning to `CCCCN(CCCC)S(=O)(=O)c1ccc(NC(=O)c2ccco2)cc1` [MMV007881], the “PGI (% of DB1127 at 10 uM)” value was -23.46%.

With `CCOc1cc2c(cc1OCC)C(c1cc(C)c(O)c(C)c1)NCC2.Cl` (stereo not shown) [MMV000483], the “PGI (% of DB1127 at 10 uM)” value is on record as -22.26%. With `CCCCc1c(CCC)c(=N)c2ccccc2n1C.I` [MMV007764] the figure was 29.51%; with `COc1cc(SC)ccc1C(=O)N1CCCC(C)C1` (stereo not shown) [MMV056726], 16.15%. With `FC(F)(F)c1cccc(CNC2CCN(CCc3ccccc3)CC2)c1` [MMV665979], the “PGI (% of DB1127 at 10 uM)” value is on record as -152.47%.

The values above are taken from article PMC4788259 (PLoS Neglected Tropical Diseases, 2016).
